For series [1], the system named is HaloTag® protein. Put plainly: Binding efficiency/kinetics to HaloTag protein in cell lysate (chase with fluorescent HaloTag ligand, SDS-PAGE). The conditions noted are these: SAHA-chloroalkane conjugates, 1 μM, 0-60 min; compared with PBI-5231 (O6). Here is the method: a) Binding efficiency to HaloTag® protein in lysate was measured by adding the methotrexate-chloroalkane conjugates to lysate from cells expressing a HaloTag® protein to a final concentration of 1 μM. Following 0-60 mins of binding, the reactions were chased with 1 μM fluorescent HaloTag® ligand. Unbound HaloTag® protein was detected through binding to the fluorescent HaloTag® ligand followed by analysis on SDS-PAGE gel and detection on a fluorescent gel scanner.
a) Binding efficiency to HaloTag® protein in lysate was measured by adding the dexamethasone-chloroalkane conjugates to lysate from cells expressing a HaloTag® protein to a final concentration of 1 μM. Following 0-60 mins of binding, the reactions were chased with 1 μM fluorescent HaloTag® ligand. Unbound HaloTag® protein was detected through binding to the fluorescent HaloTag ligand followed by analysis on SDS-PAGE gel and detection on a fluorescent gel scanner.
a) Binding kinetics to HaloTag® protein in cell lysate was measured by adding the modified BIRB796-chloroalkane conjugates to lysate from cells expressing a HaloTag® protein at a final concentration of 1 μM. After 0-60 min of binding, the reactions were chased with 1 μM fluorescent HaloTag® ligand (Promega Corporation). Unbound HaloTag® protein was detected through binding to the fluorescent HaloTag® ligand followed by analysis on SDS-PAGE and detection on a fluorescent gel scanner.
Following 0-60 min of binding, the reactions were chased with 1 μM fluorescent HaloTag® ligand. Unbound HaloTag® protein was detected through binding to the fluorescent HaloTag® ligand followed by analysis on SDS-PAGE and detection on a fluorescent gel scanner.
a) Binding kinetics to HaloTag® protein in cell lysate was measured by adding the dasatinib-chloroalkane conjugates to lysate (final concentration of 1 μM) from cells expressing a HaloTag® protein. Following 0-60 min of binding, the reactions were chased with 1 μM fluorescent HaloTag® ligand. Unbound HaloTag® protein was detected through binding to the fluorescent HaloTag® ligand followed by analysis on SDS-PAGE and detection on a fluorescent gel scanner.

In series [2] the test system is HaloTag® protein. In words: Binding efficiency/kinetics to HaloTag protein in cells (cell permeability; chase with fluorescent HaloTag ligand, SDS-PAGE). The format is cell-based. The conditions noted are these: SAHA-chloroalkane conjugates, 10 μM, 0-180 min; HaloTag localized to cytoplasm or nucleus; compared with PBI-5231 (O6). How it is done: b) Binding efficiency to HaloTag® protein in cells was measured by adding the methotrexate-chloroalkane conjugates to cells expressing a HaloTag® protein to a final concentration of 10 μM. Following 0-120 mins of binding, the reactions were chased with 5 μM fluorescent HaloTag® ligand. Unbound HaloTag® protein was detected through binding to the fluorescent HaloTag® ligand followed by cell lysis, analysis on a SDS-PAGE gel and detection on a fluorescent gel scanner.
b) Binding efficiency to HaloTag® protein in cells was measured by adding the dexamethasone-chloroalkane conjugates to cells expressing a HaloTag® protein to a final concentration of 10 μM. Following 0-60 mins of binding, the reaction was chased with 5 μM fluorescent HaloTag ligand. Unbound HaloTag® protein was detected through binding to the fluorescent HaloTag® ligand followed by cell lysis, analysis on SDS-PAGE gel and detection on a fluorescent gel scanner.
b) Binding kinetics to HaloTag® protein in cells was measured by adding the modified BIRB796-chloroalkane conjugates to cells expressing a HaloTag® protein at a final concentration of 10 μM. Following 0-60 min of binding, the reactions were chased with 5 μM fluorescent HaloTag® ligand. Unbound HaloTag® protein was detected through binding to the fluorescent HaloTag® ligand followed by cell lysis, analysis on SDS-PAGE and detection on a fluorescent gel scanner.
Following 0-180 min of binding, the reactions were chased with 5 μM fluorescent HaloTag® ligand. Unbound HaloTag® protein was detected through binding to the fluorescent HaloTag® ligand followed by cell lysis, analysis on SDS-PAGE and detection on a fluorescent gel scanner.
b) Binding kinetics to HaloTag® protein in cells was measured by adding the dasatinib-chloroalkane conjugates (final concentration of 10 μM) to cells expressing a HaloTag protein which localized to the cytoplasm or the nucleus. Following 0-90 min of binding, the reactions were chased with 5 μM fluorescent HaloTag® ligand. Unbound HaloTag® protein was detected through binding to the fluorescent HaloTag® ligand followed by cell lysis, analysis on SDS-PAGE and detection on a fluorescent gel scanner.

For series [3], the system named is intracellular HDAC activity. In words: Intracellular HDAC activity, non-lytic HDAC-Glo I/II assay in HEK293 and K562 cells. The format is cell-based. The note with it: PBI-5040 relative to SAHA, 2 h. Here is the method:
HEK293 cells were plated into a 96-well plate at 1×10^5 cell/ml, and 24 h later, the media was replaced with serum free media. K562 cells were plated in serum free media (96-well plate) at 2×10^5 cells/ml.

The test system of series [4] is all known target of SAHA (HDAC1, HDAC2, HDAC3, HDAC6, HDAC8, HDAC10). In words: Pull-down of endogenous targets from K562 cells onto HaloTag protein beads, Western blot and mass spec analysis. In kind it is cell-based. Here is the method:
K562 cells were plated into 150 mm dishes at 1.66×10^6 cell/ml (total of 5×10^7 cells per dish). […] Following equilibrium binding of 2 h, the media was removed; cells were quickly washed with PBS; cells lysed in a detergent-based lysis buffer for 10 min and centrifuged at 3000×g for 1 min. Clear lysates were then added to 75 ul of settled paramagnetic HaloTag® protein beads and incubated with shaking for 15 min. […] The released targets were subjected to mass spec analysis (FIG. 14B) as well as western blot analysis (FIG. 14A) with anti-HDAC1 antibody (ABCAM), anti-HDAC2 antibody (ABCAM), anti-HDAC6 antibody (Millipore), anti-HDAC3 antibody (Thermo Fisher), anti-HDAC10 (ABCAM) and anti-HDAC8 antibody (Rockland).
For orientation: A western blot detects proteins with antibodies after separation by electrophoresis.

For series [5], the target named is T1, ABL-NanoLuc® fusion protein (Homo sapiens, UniProt P00519).
T1 construct: expressed in transfected cells; host or cells: HEK293
T1 sequence (P00519 whole entry, the tested form may be a part): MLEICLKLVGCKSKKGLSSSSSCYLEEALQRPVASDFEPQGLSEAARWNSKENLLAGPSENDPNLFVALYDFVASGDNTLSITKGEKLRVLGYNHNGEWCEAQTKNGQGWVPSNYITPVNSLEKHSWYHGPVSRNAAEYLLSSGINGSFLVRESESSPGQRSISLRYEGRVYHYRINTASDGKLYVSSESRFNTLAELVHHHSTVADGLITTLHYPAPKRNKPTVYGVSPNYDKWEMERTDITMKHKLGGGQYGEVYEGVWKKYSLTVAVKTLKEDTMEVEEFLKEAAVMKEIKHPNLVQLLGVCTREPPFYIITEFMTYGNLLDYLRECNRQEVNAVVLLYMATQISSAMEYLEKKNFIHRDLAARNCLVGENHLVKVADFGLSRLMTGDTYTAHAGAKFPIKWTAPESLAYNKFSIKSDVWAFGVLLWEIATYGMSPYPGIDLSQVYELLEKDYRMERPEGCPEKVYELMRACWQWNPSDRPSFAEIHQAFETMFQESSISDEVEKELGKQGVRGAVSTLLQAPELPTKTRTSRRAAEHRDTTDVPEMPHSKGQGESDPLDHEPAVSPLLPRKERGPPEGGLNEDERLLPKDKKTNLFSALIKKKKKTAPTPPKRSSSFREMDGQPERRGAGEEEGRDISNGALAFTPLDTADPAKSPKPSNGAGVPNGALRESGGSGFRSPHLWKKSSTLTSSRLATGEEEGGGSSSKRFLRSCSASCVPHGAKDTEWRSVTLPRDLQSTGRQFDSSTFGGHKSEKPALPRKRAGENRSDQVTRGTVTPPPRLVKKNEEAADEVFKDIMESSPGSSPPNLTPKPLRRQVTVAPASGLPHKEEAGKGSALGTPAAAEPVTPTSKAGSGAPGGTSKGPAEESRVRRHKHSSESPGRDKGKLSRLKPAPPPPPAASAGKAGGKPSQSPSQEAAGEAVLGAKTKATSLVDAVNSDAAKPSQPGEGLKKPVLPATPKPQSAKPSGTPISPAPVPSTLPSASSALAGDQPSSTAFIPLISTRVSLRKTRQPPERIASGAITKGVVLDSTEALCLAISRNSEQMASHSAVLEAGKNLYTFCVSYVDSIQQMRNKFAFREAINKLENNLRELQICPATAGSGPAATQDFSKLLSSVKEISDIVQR
In words: Pull-down of ABL-NanoLuc fusion from live HEK293 cells onto HaloTag protein beads. The format is cell-based. The note with it: HEK293, 20 μM conjugate, 2 h; beads 15 min; release with 400 μM dasatinib. Here is the method:
c) The 2 carbamate linkers were also compared for their ability to specifically pull down a ABL-NanoLuc® fusion protein from live cells. HEK293 cells were transfected using PEI with plasmid DNA encoding ABL-NanoLuc® fusion (transfection was done in a 96-well format). The DNA was diluted 1:100 with a promoterless carrier DNA plasmid (pCI-neo; Promega Corporation) to a final concentration of 80 ng total DNA per well. Twenty-four hours post-transfection, cells were incubated with a final concentration of 20 μM PBI-5270 or PBI-5590 while control cells were not treated with the conjugated drug. Following equilibration binding of 2 h, the media was removed; cells were quickly washed with PBS; and cells lysed in detergent-based lysis buffer for 10 min. Cell lysates were then transferred to a 96-well plate containing 0.5 μl settled paramagnetic HaloTag® protein beads and incubated with shaking for 15 min. Following binding, the unbound fraction was removed, the HaloTag® protein paramagnetic beads were washed 3×, and the captured ABL-NanoLuc® fusion was specifically released from the beads by competition with 400 μM unconjugated dasatinib for 15 min. The released ABL-NanoLuc® fusion in the experiment (+PBI-5270 or +PBI-5590) and control samples was detected by NanoGlo® reagent.

As for `O=C(CCCCCCC(=O)Nc1ccc(CNC(=O)OCCOCCOCCOC(=O)NCCOCCOCCCCCCCl)cc1)NO` [PBI-5040, SAHA-Carbamate], the “binding kinetics to HaloTag protein in cell lysate” value in the series on HaloTag® protein [1] was “significantly faster binding kinetics”. The “permeability/binding kinetics to HaloTag protein in cells” value in the series with HaloTag® protein [2] is given as “significantly faster permeability/binding kinetics”. Moreover, in series [3], the “reduction in SAHA potency due to the chloroalkane modification” value was ~2 fold. In series [4] (20 uM, 2 h, beads 15 min, release with 400 μM SAHA), the “pull-down of endogenous SAHA targets incl. low affinity (HDAC8) and low abundance (HDAC3) target” value is reported as “specifically pulled down”. Further, the cellular permeability entry in series [4] (inferred from pull down of nuclear (HDAC1) and cytoplasmic (HDAC 6) proteins) is “high”.

For the compound `Cc1nc(Nc2ncc(C(=O)Nc3c(C)cccc3Cl)s2)cc(N2CCN(CCOC(=O)NCCCCCNC(=O)OCCOCCOCCOC(=O)NCCOCCOCCCCCCCl)CC2)n1` [PBI-5270, Dasatinib Bis-Carbamate], the “pull-down of ABL:NanoLuc fusion from live cells” value in series [5] is “pulled down efficiently”.

(Values after US11072812B2, “Substrates for covalent tethering of proteins to functional groups or solid surfaces” (PROMEGA CORPORATION, priority 2013, dated 2021).)
